US20190030036A1, “PHOSPHODIESTERASE INHIBITOR TREATMENT” (Cyrano Therapeutics, Inc., priority 2013, published 2019)
Marks after values point to notes of the source that are not given here.

Tested on: patients with hyposmia
Test: Smell function (DT, RT, ME, H) by forced-choice, three-stimuli, stepwise-staircase technique with four odors; open trial of oral theophylline
Assay type: in vivo, human
Excerpt: Patients initially reported their sensory dysfunction as either loss of taste (e.g., flavor) and/or smell function. This subjective response was documented by objective psychophysical measurements of olfactory function administered to each patient by use of a forced-choice, three-stimuli, stepwise-staircase technique in a fixed, controlled design (1, 53). Efficacy of this technique and results of testing were previously documented in a double-blind clinical trial (53). Four odors were used; they were pyridine (dead-fish odor), nitrobenzene (bitter-almond odor), thiophene (petroleum-like odor) and amyl acetate (banana-oil odor). Detection thresholds (DT), recognition thresholds (RT) and magnitude estimation (ME) values for each odor were determined as previously described (1, 53). Thresholds were converted into bottle units (BU) as previously described (53) and results reported as M±SEM of correct responses for each odor in each treatment group; ME was reported in % and results calculated to obtain M±SEM for each treatment group for all correct responses using data for the four highest odor concentrations presented (from 10^−2M—an absolute odor concentration).
In addition, each patient graded the hedonic (H) value of each odor presented for these same odor concentrations (from 10^−2M—an absolute odor concentration using a −100−0−+100 scale). […] Results were obtained by calculating the arithmetical sum of each correct recognition response for each odor with respect to its pleasantness, unpleasantness or neutrality. Arithmetic M±SEM were obtained for each treatment group for each odor presented.
After determination of hyposmia, patients were treated in an open label, fixed design, controlled open trial. Patients were given an oral extended release theophylline in divided daily doses taken in the middle of breakfast and lunch. All patients were initially given 200 mg of theophylline; changes in this dose were made based upon subjective responses to therapy. If at a subsequent return visit, patients reported ≥5% subjective improvement in overall smell function, they continued on this same dose of theophylline and were reevaluated after four to six months of continued treatment. Results from any subsequent return from these improved patients were not included in any subsequent data report. All subsequent comparisons between treated and untreated patients were made only between those patients continuing in the study compared to their own measurements obtained in the untreated state. If patients reported <5% subjective improvement, their theophylline dose was increased by 200 mg daily and they were scheduled for retesting at the study site after two to four months at this new dosage. For patients that reported <5% improvement, this sequence continued until patients reached 800 mg of theophylline, at which time the study was considered completed.
Patients returned for reevaluation after two to four months of treatment. Measurements of blood serum theophylline were measured by a fluorescence polarization assay (Abbott, Chicago, Ill.). At this time, subjective changes in smell function were measured independently (compared to patient's memory of previous normal smell function monitored by use of the patients' daily measurements) using the scale from −100−0-+100 previously described. After independently recording their subjective responses, smell function was measured for all four odors with DT, RT, ME and H determined without recourse to prior measurements.
Since data for all measurements from each patient group (local or distant) on each dose level were combined mean and SEM for each measurement (DT, RT, ME, H) of smell function for each treatment group were calculated on this basis. Differences in measurements between before treatment and each treatment level were calculated and significance of differences estimated using Student t tests (values p<0.05 considered significant). […]

[1] = pyridine, oral theophylline 200 mg
[2] = pyridine, oral theophylline 200 mg daily, all patients (199)
[3] = pyridine, oral theophylline 200 mg, Type I hyposmia (57)
[4] = pyridine, oral theophylline 200 mg, Type II hyposmia (138)
[5] = pyridine, oral theophylline 200 mg, Type III hyposmia (4)
[6] = pyridine, oral theophylline 400 mg
[7] = pyridine, oral theophylline 400 mg daily, all patients (120)
[8] = pyridine, oral theophylline 400 mg, Type I hyposmia (33)
[9] = pyridine, oral theophylline 400 mg, Type II hyposmia (85)
[10] = pyridine, oral theophylline 400 mg, Type III hyposmia (2)
[11] = pyridine, oral theophylline 600 mg daily, all patients (160)
[12] = pyridine, oral theophylline 600 mg, Type I hyposmia (51)
[13] = pyridine, oral theophylline 600 mg, Type II hyposmia (105)
[14] = pyridine, oral theophylline 600 mg, Type III hyposmia (4)
[15] = pyridine, oral theophylline 800 mg daily, all patients (28)
[16] = pyridine, oral theophylline 800 mg, Type I hyposmia (12)

SMILES: Cn1c(=O)c2[nH]cnc2n(C)c1=O [theophylline]
- total mean increase of ME for all odors (oral theophylline 600 mg): 6.9%
- decrease of H for pyridine (oral theophylline 800 mg daily): 55%
- decrease of H for thiophene (oral theophylline 800 mg daily): 37%
- increase of H for amyl acetate (oral theophylline 800 mg daily): about 50%
- increase of H for nitrobenzene (oral theophylline 800 mg daily): about 50%
- decrease of H values [1]: 2%
- increase of ME values [1]: 6%
- DT, detection threshold [2]: 7.6 ± 0.2^a BU
- H, hedonic estimation [2]: −22 ± 2^a %
- ME, magnitude estimation [2]: 28 ± 2^a %
- RT, recognition threshold [2]: 9.0 ± 0.2^a BU
- DT, detection threshold [3]: 9.5 ± 0.2^ BU
- H, hedonic value [3]: −8 ± 2^a %
- ME, magnitude estimation [3]: 11 ± 2^a %
- RT, recognition threshold [3]: 11.0 ± 0.2^a BU
- DT, detection threshold [4]: 6.9 ± 0.2^ BU
- H, hedonic value [4]: −28 ± 2^ %
- ME, magnitude estimation [4]: 35 ± 2^ %
- RT, recognition threshold [4]: 8.2 ± 0.2^a BU
- DT, detection threshold [5]: 4.0 ± 0.6 BU
- H, hedonic value [5]: −40 ± 13%
- ME, magnitude estimation [5]: 45 ± 11%
- RT, recognition threshold [5]: 5.2 ± 0.5 BU
- ME increases [6]: 12%
- increases in H values [6]: 9%
- DT, detection threshold [7]: 7.0 ± 0.3^c BU
- H, hedonic estimation [7]: −26 ± 3^b %
- ME, magnitude estimation [7]: 33 ± 3^a %
- RT, recognition threshold [7]: 8.5 ± 0.3^a BU
- DT, detection threshold [8]: 8.8 ± 0.5^ BU
- H, hedonic value [8]: −7 ± 3^a %
- ME, magnitude estimation [8]: 12 ± 3^a %
- RT, recognition threshold [8]: 10.6 ± 0.4^ BU
- DT, detection threshold [9]: 6.3 ± 0.3^a BU
- H, hedonic value [9]: −34 ± 3^ %
- ME, magnitude estimation [9]: 41 ± 3^a %
- RT, recognition threshold [9]: 7.7 ± 0.3^a BU
- DT, detection threshold [10]: 5.0 BU
- H, hedonic value [10]: −40%
- ME, magnitude estimation [10]: 45%
- RT, recognition threshold [10]: 5.0 BU
- DT, detection threshold [11]: 7.4 ± 0.2^c BU
- H, hedonic estimation [11]: −19 ± 2^ %
- ME, magnitude estimation [11]: 26 ± 2^d %
- RT, recognition threshold [11]: 9.4 ± 0.2^c BU
- DT, detection threshold [12]: 8.9 ± 0.3^b BU
- H, hedonic value [12]: −8 ± 2^a %
- ME, magnitude estimation [12]: 11 ± 3^a %
- RT, recognition threshold [12]: 10.9 ± 0.3^ BU
- DT, detection threshold [13]: 6.7 ± 0.3^a BU
- H, hedonic value [13]: −25 ± 3^ %
- ME, magnitude estimation [13]: 33 ± 2^ %
- RT, recognition threshold [13]: 8.9 ± 0.3^ BU
- DT, detection threshold [14]: 3.8 ± 0.9 BU
- H, hedonic value [14]: −26 ± 22%
- ME, magnitude estimation [14]: 41 ± 15%
- RT, recognition threshold [14]: 5.5 ± 0.9 BU
- DT, detection threshold [15]: 6.9 ± 0.6 BU
- H, hedonic estimation [15]: −22 ± 6%
- ME, magnitude estimation [15]: 29 ± 5%
- RT, recognition threshold [15]: 8.5 ± 0.6^c BU
- DT, detection threshold [16]: 9.6 ± 0.8^ BU
- H, hedonic value [16]: −11 ± 5^a %
- ME, magnitude estimation [16]: 10 ± 4^a %
- RT, recognition threshold [16]: 10.3 ± 1.0^ BU
- DT, detection threshold (pyridine, oral theophylline 800 mg, Type II hyposmia (16)): 4.7 ± 0.7^a BU
